Several values for one entry are separate records, joined by “and”; a condition that tells them apart may be missing. Equal entries are not always repeated. Where two headings read alike, the source gives them in different places. Each block holds one compound with its values, some of them ahead of it.
Tests used:
[1] = tested on: Plasmodium falciparum NF54; assay: Parasite lactate dehydrogenase (pLDH) assay over 72 h, CQ-sensitive strain; format: cell-based
Protocol: (§1) The assay was performed in quadruplicate. The data were analyzed by nonlinear regression analysis using the GraphPad PRISM version 5.00 program to determine the IC50 of each compound.

[2] = tested on: Plasmodium falciparum DD2; assay: Parasite lactate dehydrogenase (pLDH) assay over 72 h, CQ-resistant strain; format: cell-based; details: for IC50: Plasmodium falciparum, read-out: Plasmodium falciparum IC50 DD2
Protocol: as §1

[3] = tested on: Chinese Hamster Ovary (CHO) cell line, CHO-K1; assay: MTT cytotoxicity assay; format: cell-based
Protocol: Cytotoxicity assays were conducted against the Chinese Hamster Ovary (CHO) cell line, ATCC CCL-61, strain CHO-K1. […] Cells were grown at 37°C in a humidified atmosphere of 5% CO2 and maintained by passage. Cells lines were seeded in 96-well microtitre plates at 10^4 cells/well in cell medium. […] DMSO (100 µL) was added to dissolve the MTT formazan precipitate, and the plates were gently agitated for 2 min to ensure homogeneity. Absorbance was measured at 540 nm using a Turner BioSystems, Inc. ModulusTM II Microplate Reader. The data were analyzed by nonlinear regression analysis using the GraphPad PRISM version 5.00 program to determine the IC50 of each compound.

[4] = Kinetic solubility in PBS; format: physicochemical; details: phosphate buffer saline (PBS), aqueous buffer, kinetic from dmso stock
Protocol: . […] The aqueous mobile phase was water with 0.1% formic acid and the organic mobile phase was acetonitrile with 0.1% formic acid. The gradient method has a flow rate of 0.8 mL/min, with a total run time of 2.5 min starting at 5% organic and increasing to 95% at 1.4 min, holding for 40 s before returning to 5% to re-equilibrate the column. • ii. Lipophilicity. Stock solutions (10 mM) of compounds were diluted to 100 μM in 96-well deep-well plate containing 300 µL of 1-octanol and 300 µL of phosphate buffer at pH 7.4. The plate was agitated on an orbital shaker at 750 rpm for 2 h. The organic and buffer layers of each well were transferred separately to a new analysis plate. The samples were analysed with the HPLC diode array detection as described for kinetic solubility. Samples from both layers were analysed to determine LogD7.4 values. • iii. Passive permeability. A parallel artificial membrane permeation assay (PAMPA) was used to assess the passive permeability of compounds with a 96-well MultiScreen filter plate ([…] pore size, Millipore). The filter plate was precoated with 5% hexadecane in hexane. Stock solutions of compounds were diluted to 1 mM in a donor buffer (pH 6.5). Lucifer yellow was added to the apical wells of the precoated MultiScreen plate containing compound donor solution. The donor buffer solutions were spiked with each test compound (1 mM). The acceptor-buffer solution was prepared by adding 10 μL DMSO to 990 μL acceptor buffer (pH 7.4) and 250 μL were added to the basolateral (acceptor) wells. The donor plate was carefully inserted into the acceptor plate and incubated at room temperature for 4 h. After the incubation period, 50 μL of samples from the acceptor plate were transferred to a round bottom 96-well plate, together with 30 μL of donor buffer for matrix matching. Theoretical equilibrium samples for each test compound were prepared by adding 150 μL of donor solutions to 250 μL acceptor solutions and left at room temperature. These theoretical equilibrium samples represent complete transfer of the compound into the donor well. For the theoretical equilibrium samples, 80 μL were added to the analysis plate. Lastly, 160 μL of the internal standard carbamazepine (0.1 μM) was added to all acceptor and equilibrium samples. A portion of the sample containing Lucifer yellow was analyzed on a BioRad iMarkTM Microplate Absorbance Reader (BioRad, Hercules, CA, United States; […]. Samples were analysed using reverse phase Gemini NX-C18 column (5 μm, 2.1 mm × 50 mm) with a Shimadzu HPLC coupled with an AB Sciex 3200 Q TRAP MS). […]. Plasma stability. Stock solutions of compounds in DMSO (10 mM) were used to spike pooled human plasma. 90 μL of each sample was transferred in duplicate to 6 different wells of a 96-deep well plate. An aliquot of each sample was immediately quenched with ice cold acetonitrile containing the internal standard carbamazepine (0.1 µM), after which the plate was incubated in a water bath (37°C for […]). Aliquots of samples were removed at 5, 15, 40, 60 and 180 min and quenched with ice cold acetonitrile. After samples of the final time point were precipitated, the supernatant was transferred to a round bottom 96-well plate for analysis by LC-MS/MS using a reverse phase Gemini NX-C18 column (5 μm, 2.1 mm × 50 mm) with a Shimadzu HPLC coupled with an AB Sciex 3200 Q TRAP MS) operated at unit resolution in the multiple reaction monitoring (MRM) mode. The aqueous phase consisted of water with 0.1% formic acid and the organic mobile phase consisted of methanol and acetonitrile (1:1, (v/v)) with 0.1% formic acid. […]. The peak area ratios were used to calculate the amount of parent compound remaining and t1/2 in plasma, using the following equations.

[5] = Plasma stability in pooled human plasma; format: in vitro ADME; details: 37°C
Protocol: . […] The aqueous mobile phase was water with 0.1% formic acid and the organic mobile phase was acetonitrile with 0.1% formic acid. The gradient method has a flow rate of 0.8 mL/min, with a total run time of 2.5 min starting at 5% organic and increasing to 95% at 1.4 min, holding for 40 s before returning to 5% to re-equilibrate the column. • ii. Lipophilicity. Stock solutions (10 mM) of compounds were diluted to 100 μM in 96-well deep-well plate containing 300 µL of 1-octanol and 300 µL of phosphate buffer at pH 7.4. The plate was agitated on an orbital shaker at 750 rpm for 2 h. The organic and buffer layers of each well were transferred separately to a new analysis plate. The samples were analysed with the HPLC diode array detection as described for kinetic solubility. Samples from both layers were analysed to determine LogD7.4 values. • iii. Passive permeability. A parallel artificial membrane permeation assay (PAMPA) was used to assess the passive permeability of compounds with a 96-well MultiScreen filter plate ([…] pore size, Millipore). The filter plate was precoated with 5% hexadecane in hexane. Stock solutions of compounds were diluted to 1 mM in a donor buffer (pH 6.5). Lucifer yellow was added to the apical wells of the precoated MultiScreen plate containing compound donor solution. The donor buffer solutions were spiked with each test compound (1 mM). The acceptor-buffer solution was prepared by adding 10 μL DMSO to 990 μL acceptor buffer (pH 7.4) and 250 μL were added to the basolateral (acceptor) wells. The donor plate was carefully inserted into the acceptor plate and incubated at room temperature for 4 h. After the incubation period, 50 μL of samples from the acceptor plate were transferred to a round bottom 96-well plate, together with 30 μL of donor buffer for matrix matching. Theoretical equilibrium samples for each test compound were prepared by adding 150 μL of donor solutions to 250 μL acceptor solutions and left at room temperature. These theoretical equilibrium samples represent complete transfer of the compound into the donor well. For the theoretical equilibrium samples, 80 μL were added to the analysis plate. Lastly, 160 μL of the internal standard carbamazepine (0.1 μM) was added to all acceptor and equilibrium samples. A portion of the sample containing Lucifer yellow was analyzed on a BioRad iMarkTM Microplate Absorbance Reader (BioRad, Hercules, CA, United States; […]. Samples were analysed using reverse phase Gemini NX-C18 column (5 μm, 2.1 mm × 50 mm) with a Shimadzu HPLC coupled with an AB Sciex 3200 Q TRAP MS). […]. Plasma stability. Stock solutions of compounds in DMSO (10 mM) were used to spike pooled human plasma. […]
. Plasma protein binding was determined in pooled human plasma using an ultracentrifugation method. […]

[6] = Metabolic stability in mouse liver microsomes; format: in vitro ADME
Protocol: (§2) Eq. 4 Predicted t1/2 t1/2=−0.693/λ (4) Where λ is the slope of the Ln % parent remaining vs. time curve. • v. Plasma protein binding. Plasma protein binding was determined in pooled human plasma using an ultracentrifugation method. Stock solutions of test compounds (10 mM) were diluted in phosphate buffer and spiked into plasma in deep well 96-well plates (10 µM). An aliquot of each compound was immediately precipitated with ice cold acetonitrile containing the internal standard carbamazepine (0.1 μM). These served as total concentration samples. After incubation in a water bath at 37°C for 1 h, the samples were transferred to ultracentrifuge tubes in duplicate and centrifuged for 4 h at 37°C and 30,000 g (Optima L-80XP, Beckman). Following centrifugation, the supernatant was transferred to the plate containing the total concentration samples and precipitated with ice cold acetonitrile containing the internal standard. Analyte concentrations of all compounds were determined via LC-MS/MS (reverse phase Gemini NX-C18 column and Shimadzu HPLC coupled with an AB Sciex 3200 Q TRAP MS) as described above. • vi. Metabolic stability. A 5-point metabolic stability assay in human and mouse liver microsomes were performed in duplicate in 96-well plates. […] The cofactor NADPH was added, and the reactions were subsequently stopped at time points 5, 10, 30 and 60 min by removal of an aliquot and quenching with ice cold acetonitrile containing the internal standard. The supernatant of all samples was analysed via LC-MS/MS analysis (reverse phase Gemini NX-C18 column and Shimadzu HPLC and AB Sciex 3200 Q TRAP MS) as described above.

[7] = Metabolic stability in human liver microsomes; format: in vitro ADME
Protocol: as §2

[8] = In vivo PK, iv and oral, whole blood; design: species or system C57BL/6 mice
Protocol: • i. Animals. […] Food and water were available ad libitum. Mice were acclimatised to the experimental environment for 4-5 days prior to initiating the experiments. • ii. Oral drug administration. AD01 and PhX6 were prepared in 100% Millipore […] prepared in an aqueous suspension of 0.5% HPMC (w/v) containing 0.2% Tween 80 (v/v). The weighed compounds were sonicated and vortexed to ensure all solutions were homogenous. […] The total volume per administration was 200 μL. Blood samples were collected post-dose in lithium heparin microvials via tail bleeding at predetermined intervals at 0.5, 1, 3, 5, 8, 10 and 24 h. Samples were gently vortexed and stored at -80°C until analysis. • iii. Intravenous administration. AD01 and PhX6 were prepared in 100% Millipore […] prepared in an organic vehicle consisting of 10% N,N-dimethylacetamide, 30% polyethylene glycol 400 (PEG), 50% polypropylene glycol (PPG) and 10% ethanol (1:3:5:1, v/v) for intravenous (iv) dosing at 10 mg/kg. The total volume of administration was 80 μL. Blood samples were collected post-dose in lithium heparin microvials via tail bleeding at predetermined intervals at 0.16, 0.5, 1, 3, 5, 8, 10 and 24 h. Samples were gently vortexed and stored at -80°C until analysis. • iv. Sample processing and analysis. […] The mixture was vortexed vigorously for 1 min, and 5 μL of the supernatant were injected onto the analytical column following centrifugation (5590 g for 5 min). A Shimadzu HPLC and reverse phase Gemini NX-C18 column coupled to an AB Sciex 3200 Q TRAP MS was operated at unit resolution in the multiple reaction monitoring (MRM) mode as described above. […] Data analysis. Drug concentration versus time plots for each compound were used to determine maximal drug concentration C max, time T max to reach C max, elimination half-life t 1/2 and the area under the concentration-time curve from time zero to infinity, AUC0-inf. From these values the PK parameters clearance CL, volume of distribution Vd and oral bioavailability BA were determined using the non-compartmental analysis Microsoft Excel Add-In PKSolver ([Zhang et al., 2010]).

[9] = design: method as in Agency, 2009; details: ref Agency, 2009; cited from earlier work
[10] = tested on: asexual blood stage of P. falciparum; design: method as in Coertzen et al., 2018; details: ref Coertzen et al., 2018; cited from earlier work
gametocytes = tested on: gametocytes; design: method as in Coertzen et al., 2018; details: ref Coertzen et al., 2018; cited from earlier work
[11] = human, in vivo; cited from earlier work
[12] = tested on: multidrug resistant Pf K1 strain; design: method as in Wittlin et al., 2013; details: tritiated hypoxanthine assay; ref Wittlin et al., 2013; read-out: Activity against multidrug resistant Pf K1 strain; cited from earlier work
[13] = design: method as in Wittlin et al., 2013; details: ref Wittlin et al., 2013; cited from earlier work
[14] = design: method as in Gibhard et al., 2021; details: murine model, ref Gibhard et al., 2021; cited from earlier work
[15] = C57BL/6, mouse, 10 mg/kg, mice, intravenous, whole blood
[16] = C57BL/6, mouse, whole blood, po, 5 mg/kg

SMILES: C[C@H]1[C@H](N2CCS(=O)(=O)CC2)O[C@@H]2O[C@@]3(C)CC[C@H]4[C@H](C)CC[C@@H]1[C@@]24OO3 [AMS, artemisone]
IC50 ([1]; CQ-sensitive NF54, pLDH 72 h, n = 3, read-out: Plasmodium falciparum IC50 NF54): 4.5 ± 2.42 nM | Resistance index ([2]; IC50 (resistant strain)/IC50 (sensitive strain), DD2/NF54): 1.2 | IC50 ([2]; CQ-resistant DD2, pLDH 72 h, n = 3): 5.48 ± 2.03 nM | IC50 ([3]; Cricetulus griseus, CHO cells, MTT): > 249000 nM | Selectivity index CHO/resistant Pf strain ([3]; cytotoxicity IC50/activity IC50, CHO/DD2): >1,000 | Selectivity index CHO/sensitive Pf strain ([3]; cytotoxicity IC50/activity IC50, CHO/NF54): >1,000

SMILES: CCN(CC)CCCC(C)Nc1ccnc2cc(Cl)ccc12 (stereo not shown) [CQ, chloroquine, reference compound]
IC50 ([1]; NF54, 72 h, read-out: Plasmodium falciparum IC50 NF54): 9.9 ± 0.4 nM | IC50 ([2]; DD2, 72 h): 142 ± 16.8 nM

solubility at 2 h ([4]; PBS pH 2, read-out: Predicted solubility pH 2): > 150 µM | solubility at 2 h ([4]; PBS pH 6.5, read-out: Predicted solubility pH 6.5): > 150 µM | solubility at 2 h ([4]; PBS pH 7.4, read-out: Predicted solubility pH 7.4): > 150 µM | half-life [5]: > 2.5 h | CLint scaled [6]: 22.3 mL/min/kg | CLint scaled [7]: 4 mL/min/kg | Vd [8, 15]: 1 ± 0.16 L/kg | clearance [8, 15]: 10.2 ± 0.93 mL/min/kg | half-life ([8]; C57BL/6, mouse, whole blood, iv, 10 mg/kg, mice, intravenous, whole blood, read-out: t1/2 (converted)): 1.2 h | Cmax [8, 16]: 6.32 ± 1.15 µM | Tmax [8, 16]: 0.7 ± 0.12 h | AUC0-∞ ([8]; mice, intravenous, whole blood): 1795 ± 198 µmol·min/L | t1/2 ([8]; mice, intravenous, whole blood): 1.12 ± 0.13 h | BA ([8]; mice, oral bioavailability): 8% and 8 ± 2% | AUC0-∞ ([8]; mice, oral gavage: AD01 4.6, PhX6 4.5, DpNEt 5 mg/kg): 550 ± 148 µmol·min/L
SMILES: CCNC(=S)NN=C(c1ccccn1)c1ccccn1 [DpNEt]

SMILES: CN(C)c1ccc2nc3ccc(=[N+](C)C)cc-3sc2c1 [MB, methylene blue]
Protein bound [9]: 94% | Interaction with artemisone against the asexual blood stage [10]: only an additive effect | Interaction with artemisone, gametocytocidal activity (gametocytes): synergistically enhanced | Bioavailability [11]: 72.3± 23.9% | Mean terminal half-life [11]: 5.25 h

SMILES: CCN(CC)c1ccc2nc3c4ccccc4/c(=N\c4ccncc4)cc-3oc2c1 [SSJ-183]
IC50 [12]: 7.6 nM | half-life [13]: 10.3 h

SMILES: C[C@H]1[C@H](N2CCSCC2)O[C@@H]2O[C@@]3(C)CC[C@H]4[C@H](C)CC[C@@H]1[C@@]24OO3 [artemiside]
Cmax relative to that after oral administration of artemisone [14]: 2.6 fold
